Experimental data from patent publication US10391143B2, “Mitochondrial-derived peptide MOTS3 regulates metabolism and cell survival” (THE REGENTS OF THE UNIVERSITY OF CALIFORNIA, priority 2013, dated 2019).
Ends that are not written are not given here.

How the values were obtained:
Assay type in all cases: in vivo
prostate cancer (22Rv1) = experiment: Prostate cancer subcutaneous allograft mouse model; conditions: 22Rv1 allograft mice
breast cancer (4T1) = experiment: Breast cancer subcutaneous allograft mouse model; conditions: 4T1 allograft mice
ZDF diabetic rats = experiment: Blood sugar in ZDF diabetic rats after 6 days of treatment; conditions: IV daily for 6 days; MOTS-c 1 mg per 400 gram rat
Experimental: FIG. 33 describes Day 6 fasting blood sugars. ZDF diabetic rats were followed until their blood sugar was […], at which point treatment was initiated with one of two doses of MOTS-c or insulin, given IV at 8 AM for 6 days. 6 rats per group were used. Fasting blood sugars were measured after 6-days. ANOVA and student t-tests were used for analysis and p-values.
FIG. 34 describes absolute change in blood glucose at Day 6. In the same experiment described in FIG. 33, absolute changes in blood glucose are shown.

Substance | toxicity as reflected by body weight maintenance (prostate cancer (22Rv1)) | toxicity as reflected by body weight maintenance (breast cancer (4T1)) | absolute change in blood glucose at Day 6 (ZDF diabetic rats)
MRWQEMGYIFYPRKLR [MOTS3, MRWQEMGYIFYPRKLR] | not toxic | not toxic | 
insulin: insulin given IV daily for 6 days as comparator in ZDF diabetic rats |  |  | stabilize their blood sugar at levels similar to baseline
